Measurements: the supplement of paper PMC11061612

How the values were obtained:
[1] = system: BxPC-3 (Pancreatic Carcinoma); test: combination Emax (second highest fraction inhibited in the dose matrix, 72 h); higher = more inhibition; extreme values may be limits of the assay
Method in brief: (§1)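 Cell lines in DMEM/F12 or RPMI with 10% FBS were plated in 1536-well plates, held 24 hours at 37°C, 5% CO2, then given two-drug dose matrices for 72 hours (DMSO typically 0.2%). Viability was read by CellTiter-Glo 2.0 luminescence and scaled as inhibition from 0 (vehicle wells) to 1 (blank wells). Combination Emax is the second-highest inhibition in the matrix; Bliss excess is observed combination effect minus expected EA + EB − EA·EB, EA and EB being single-agent effects.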

ES6 (Ewing's Sarcoma) = test: as above
Method in brief: as §1

GAK (Melanoma) = test: as above
Method in brief: as §1

[2] = system: IA-LM (Non-Small Cell Lung Carcinoma); test: as above
Method in brief: as §1

[3] = system: LCLC-103H (Non-Small Cell Lung Carcinoma); test: as above
Method in brief: as §1

[4] = system: MDA-MB-415 (Breast Carcinoma); test: as above
Method in brief: as §1

[5] = system: MONO-MAC-6 (Acute Myeloid Leukemia); test: as above
Method in brief: as §1

NCI-H226 (Mesothelioma) = test: as above
Method in brief: as §1

[6] = system: NCI-H3118 (Head and Neck Carcinoma); test: as above
Method in brief: as §1

[7] = system: RCC-JW (Kidney Carcinoma); test: as above
Method in brief: as §1

[8] = system: SK-CO-1 (Colorectal Carcinoma); test: as above
Method in brief: as §1

[9] = system: T84 (Colorectal Carcinoma); test: as above
Method in brief: as §1

[10] = system: KP-4 (Pancreatic Carcinoma); test: Bliss excess, mean over the matrix (fraction); higher = more synergy
Method in brief: as §1

[11] = system: KP-4 (Pancreatic Carcinoma); test: combination Emax (second highest fraction inhibited in the dose matrix, 72 h); higher = more inhibition; extreme values may be limits of the assay
Method in brief: as §1
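Throughout, for Bliss excess, mean over the matrix: after 72 h of two-drug dosing.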

Row | Compound | combination Emax [1] | combination Emax (ES6 (Ewing's Sarcoma)) | combination Emax (GAK (Melanoma)) | combination Emax [2] | combination Emax [3] | combination Emax [4] | combination Emax [5] | combination Emax (NCI-H226 (Mesothelioma)) | combination Emax [6] | combination Emax [7] | combination Emax [8] | combination Emax [9] | Bliss excess [10] | combination Emax [11]
1 | N#Cc1cnc(Nc2cc(NC[C@H]3CNCCO3)c(C(F)(F)F)cn2)cn1 [SRA737] + Nc1ccn([C@@H]2O[C@H](CO)[C@@H](O)C2(F)F)c(=O)n1 [Gemcitabine] (first compound max 10 µM, 7x7, partner max 0.3 µM) | 0.644 | 0.599 | 0.506 | 0.373 | 0.844 | 0.638 | 1 | 0.462 | 0.772 | 0.868 | 0.899 | 0.827 | – | –
2 | CN(CCO)CC[C@H](CSc1ccccc1)Nc1ccc(S(=O)(=O)NC(=O)c2ccc(N3CCC([C@@H](O)c4ccccc4-c4ccc(Cl)cc4)CC3)cc2)cc1S(=O)(=O)C(F)(F)F [AZD4320] + CC(=O)O[C@H]1C(=O)[C@@]2(C)[C@H]([C@H](OC(=O)c3ccccc3)[C@]3(O)C[C@H](OC(=O)[C@H](O)[C@@H](NC(=O)c4ccccc4)c4ccccc4)C(C)=C1C3(C)C)[C@]1(OC(C)=O)CO[C@@H]1C[C@@H]2O [Paclitaxel] (first compound max 1 µM, 7x7, partner max 3 µM) | 0.928 | 0.779 | 0.709 | 0.833 | 0.985 | 0.923 | 1 | 0.917 | 0.978 | 0.952 | 0.972 | 0.726 | -0.0097 | –
3 | C=CCn1c(=O)c2cnc(Nc3ccc(N4CCN(C)CC4)cc3)nc2n1-c1cccc(C(C)(C)O)n1 [AZD1775] + Nc1ccn([C@@H]2O[C@H](CO)[C@@H](O)C2(F)F)c(=O)n1 [Gemcitabine] (first compound max 1 µM, partner max 0.3 µM) | 0.554 | 0.556 | 0.612 | 0.287 | 0.753 | 0.58 | 1 | 0.482 | 0.872 | 0.819 | 0.903 | 0.85 | – | –
4 | C[C@@H]1COCCN1c1cc(C2([S@](C)(=N)=O)CC2)nc(-c2ccnc3[nH]ccc23)n1 [AZD6738] + C1CC(C1)(C(=O)[O-])C(=O)[O-].N.N.[Pt+2] [Carboplatin] (first compound max 10 µM, 7x7, partner max 10 µM) | 0.349 | – | 0.491 | 0.171 | 0.385 | 0.549 | 0.858 | 0.236 | 0.61 | 0.51 | 0.808 | 0.731 | -0.0351 | 0.471
5 | N#Cc1cnc(Nc2cc(NC[C@H]3CNCCO3)c(C(F)(F)F)cn2)cn1 [SRA737] + CCc1c2c(nc3ccc(O)cc13)-c1cc3c(c(=O)n1C2)COC(=O)[C@]3(O)CC [SN-38] (first compound max 10 µM, 7x7, partner max 0.3 µM) | 0.671 | 0.59 | 0.585 | 0.675 | 0.817 | 0.431 | 1 | 0.248 | 0.763 | 0.574 | 0.893 | 0.815 | -0.031 | –
6 | C[C@@H]1COCCN1c1cc(C2([S@](C)(=N)=O)CC2)nc(-c2ccnc3[nH]ccc23)n1 [AZD6738] + Nc1ccn([C@@H]2O[C@H](CO)[C@@H](O)C2(F)F)c(=O)n1 [Gemcitabine] (first compound max 10 µM, 7x7, partner max 0.3 µM) | 0.63 | 0.731 | 0.503 | 0.462 | 0.794 | 0.642 | 1 | 0.495 | 0.846 | 0.877 | 0.897 | 0.793 | – | –
7 | CN(CCO)CC[C@H](CSc1ccccc1)Nc1ccc(S(=O)(=O)NC(=O)c2ccc(N3CCC([C@@H](O)c4ccccc4-c4ccc(Cl)cc4)CC3)cc2)cc1S(=O)(=O)C(F)(F)F [AZD4320] + Nc1ccn([C@@H]2O[C@H](CO)[C@@H](O)C2(F)F)c(=O)n1 [Gemcitabine] (first compound max 1 µM, 7x7, partner max 0.3 µM) | 0.577 | 0.824 | 0.583 | 0.594 | 0.681 | 0.637 | 1 | 0.555 | 0.752 | 0.965 | 0.945 | 0.508 | – | –
8 | Cc1c2c(nn1C)CSCc1cc(n(C)n1)CSc1cc(c3ccccc3c1)OCCCc1c(C(=O)O)n(C)c3c-2c(Cl)ccc13 [AZD5991] + Nc1ccn([C@@H]2O[C@H](CO)[C@@H](O)C2(F)F)c(=O)n1 [Gemcitabine] (first compound max 1 µM, 7x7, partner max 0.3 µM) | 0.47 | 0.529 | 0.473 | 0.261 | 0.513 | 0.526 | 1 | 0.173 | 0.818 | 0.828 | 0.864 | 0.521 | – | –
